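1) Cells in 96-well plates. 2) Compound, 48 h, 5 concentrations. 3) Linear interpolation between surrounding doses. 4) Unreached endpoint = highest concentration. The concentration for 50% growth inhibition is given as GI50.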 Activity calls are given as the source filed them. Cut-off read from the data, not from the text of the source: active = GI50 up to about 1.1 µM and inactive = higher.
Key:
Assay in all cases: NCI tumour cell line growth inhibition, 48 h
MOLT-4 = test system: MOLT-4
HCT-116 = test system: HCT-116
MDA-MB-435 = test system: MDA-MB-435
NCI-H522 = test system: NCI-H522
SF-268 = test system: SF-268
PC-3 = test system: PC-3
UO-31 = test system: UO-31
SK-MEL-5 = test system: SK-MEL-5
HOP-92 = test system: HOP-92
A549 = test system: A549
ACHN = test system: ACHN
SF-539 = test system: SF-539
SN12C = test system: SN12C
UACC-62 = test system: UACC-62
SK-OV-3 = test system: SK-OV-3
HCC 2998 = test system: HCC 2998
EKVX = test system: EKVX
OVCAR-8 = test system: OVCAR-8
IGROV-1 = test system: IGROV-1
786-0 = test system: 786-0
MDA-MB-231 = test system: MDA-MB-231
NCI-H226 = test system: NCI-H226
SF-295 = test system: SF-295
SNB-19 = test system: SNB-19
OVCAR-3 = test system: OVCAR-3
BT-549 = test system: BT-549
DU-145 = test system: DU-145
NCI-H23 = test system: NCI-H23
CCRF-CEM = test system: CCRF-CEM
OVCAR-4 = test system: OVCAR-4
OVCAR-5 = test system: OVCAR-5
HCT-15 = test system: HCT-15
Hs-578T = test system: Hs-578T
M14 = test system: M14
NCI/ADR-RES = test system: NCI/ADR-RES
COLO 205 = test system: COLO 205
U-251 = test system: U-251
K562 = test system: K562
TK-10 = test system: TK-10
RXF 393 = test system: RXF 393
T47D = test system: T47D
NCI-H460 = test system: NCI-H460
SNB-75 = test system: SNB-75
SR = test system: SR
SK-MEL-28 = test system: SK-MEL-28
SK-MEL-2 = test system: SK-MEL-2
UACC-257 = test system: UACC-257
KM12 = test system: KM12
A498 = test system: A498
RPMI-8226 = test system: RPMI-8226
CAKI-1 = test system: CAKI-1
HOP-62 = test system: HOP-62
MDA-N = test system: MDA-N
SW-620 = test system: SW-620
HL-60 = test system: HL-60
MCF7 = test system: MCF7
LOX IMVI = test system: LOX IMVI
HT-29 = test system: HT-29
Malme-3M = test system: Malme-3M

In the case of `C(=C/c1ccc2nc(-c3ccc(/C=C/C=N/NC4=NCCCN4)cc3)cn2c1)/C=N/NC1=NCCCN1`, the GI50 (MOLT-4) is reported as 42.2 µM (inactive), the GI50 (HCT-116) is reported as 6.81 µM (inactive) and the GI50 (MDA-MB-435) is reported as 26.1 µM (inactive). The GI50 (NCI-H522) was 9.64 µM (inactive), the GI50 (SF-268) was 12.2 µM (inactive) and the GI50 (PC-3) was 20.3 µM (inactive). The GI50 (UO-31) was > 100 µM (inactive), the GI50 (SK-MEL-5) was > 100 µM (inactive) and the GI50 (HOP-92) was > 100 µM (inactive). The GI50 (A549) was 10.3 µM (inactive), the GI50 (ACHN) was 46.7 µM (inactive) and the GI50 (SF-539) was 25.5 µM (inactive). The GI50 (SN12C) was > 100 µM (inactive), the GI50 (UACC-62) was 30.1 µM (inactive) and the GI50 (SK-OV-3) was > 100 µM (inactive). For the same molecule, the GI50 (HCC 2998) was 45.4 µM (inactive), the GI50 (EKVX) was 18.8 µM (inactive) and the GI50 (OVCAR-8) was 17.6 µM (inactive). For the same molecule, the GI50 (IGROV-1) was 31.5 µM (inactive), the GI50 (786-0) was 42.9 µM (inactive) and the GI50 (MDA-MB-231) was 15.2 µM (inactive). For the same molecule, the GI50 (NCI-H226) was 14.8 µM (inactive), the GI50 (SF-295) was > 100 µM (inactive) and the GI50 (SNB-19) was 89.7 µM (inactive). The GI50 (OVCAR-3) was > 100 µM (inactive), the GI50 (BT-549) was > 100 µM (inactive) and the GI50 (DU-145) was 17.5 µM (inactive). For the same molecule, the GI50 (NCI-H23) was > 100 µM (inactive), the GI50 (CCRF-CEM) was 35.7 µM (inactive) and the GI50 (OVCAR-4) was > 100 µM (inactive). The GI50 (OVCAR-5) was 49.9 µM (inactive), the GI50 (HCT-15) was over 100 µM and the GI50 (Hs-578T) was 15.8 µM (inactive). For the same molecule, the GI50 (M14) was 66.4 µM (inactive), the GI50 (NCI/ADR-RES) was 22.1 µM (inactive) and the GI50 (COLO 205) was > 100 µM (inactive). For the same molecule, the GI50 (U-251) was 16.1 µM (inactive), the GI50 (K562) was 4.39 µM (inactive) and the GI50 (TK-10) was 19.5 µM (inactive). For the same molecule, the GI50 (RXF 393) was 23.8 µM (inactive), the GI50 (T47D) was 40.9 µM (inactive) and the GI50 (NCI-H460) was 13.3 µM (inactive). The GI50 (SNB-75) was 35.7 µM (inactive), the GI50 (SR) was 31.2 µM (inactive) and the GI50 (SK-MEL-28) was > 100 µM (inactive). For the same molecule, the GI50 (SK-MEL-2) was > 100 µM (inactive), the GI50 (UACC-257) was 10.6 µM (inactive) and the GI50 (KM12) was 6.31 µM (inactive). The GI50 (A498) was > 100 µM (inactive), the GI50 (RPMI-8226) was 0.822 µM (active) and the GI50 (CAKI-1) was 12.1 µM (inactive). The GI50 (HOP-62) was > 100 µM (inactive) and the GI50 (MDA-N) was 43.9 µM (inactive).
`C1CC[C@H]2SSC3CCCC[C@H]3SSC2C1` (stereo partly specified) was tested, and the GI50 (MOLT-4) was > 100 µM (inactive), the GI50 (HCT-116) was > 100 µM (inactive) and the GI50 (MDA-MB-435) was > 100 µM (inactive). The GI50 (NCI-H522) was > 100 µM (inactive), the GI50 (SF-268) was > 100 µM (inactive) and the GI50 (PC-3) was > 100 µM (inactive). For the same molecule, the GI50 (UO-31) was > 100 µM (inactive), the GI50 (SK-MEL-5) was > 100 µM (inactive) and the GI50 (HOP-92) was > 100 µM (inactive). For the same molecule, the GI50 (SW-620) was > 100 µM (inactive), the GI50 (A549) was > 100 µM (inactive) and the GI50 (SF-539) was > 100 µM (inactive). For the same molecule, the GI50 (SN12C) was > 100 µM (inactive), the GI50 (UACC-62) was > 100 µM (inactive) and the GI50 (SK-OV-3) was > 100 µM (inactive). The GI50 (HCC 2998) was > 100 µM (inactive), the GI50 (EKVX) was > 100 µM (inactive) and the GI50 (OVCAR-8) was > 100 µM (inactive). The GI50 (IGROV-1) was > 100 µM (inactive), the GI50 (HL-60) was > 100 µM (inactive) and the GI50 (786-0) was > 100 µM (inactive). For the same molecule, the GI50 (MDA-MB-231) was > 100 µM (inactive), the GI50 (MCF7) was > 100 µM (inactive) and the GI50 (SF-295) was > 100 µM (inactive). The GI50 (SNB-19) was > 100 µM (inactive), the GI50 (OVCAR-3) was > 100 µM (inactive) and the GI50 (BT-549) was > 100 µM (inactive). For the same molecule, the GI50 (DU-145) was > 100 µM (inactive), the GI50 (NCI-H23) was > 100 µM (inactive) and the GI50 (CCRF-CEM) was > 100 µM (inactive). The GI50 (OVCAR-4) was > 100 µM (inactive), the GI50 (OVCAR-5) was > 100 µM (inactive) and the GI50 (HCT-15) was over 100 µM. For the same molecule, the GI50 (M14) was > 100 µM (inactive), the GI50 (NCI/ADR-RES) was > 100 µM (inactive) and the GI50 (COLO 205) was > 100 µM (inactive). The GI50 (U-251) was > 100 µM (inactive), the GI50 (K562) was > 100 µM (inactive) and the GI50 (TK-10) was > 100 µM (inactive). For the same molecule, the GI50 (LOX IMVI) was > 100 µM (inactive), the GI50 (T47D) was > 100 µM (inactive) and the GI50 (NCI-H460) was > 100 µM (inactive). For the same molecule, the GI50 (SNB-75) was > 100 µM (inactive), the GI50 (SR) was > 100 µM (inactive) and the GI50 (SK-MEL-28) was > 100 µM (inactive). The GI50 (HT-29) was > 100 µM (inactive), the GI50 (UACC-257) was > 100 µM (inactive) and the GI50 (KM12) was > 100 µM (inactive). The GI50 (RPMI-8226) was > 100 µM (inactive), the GI50 (HOP-62) was > 100 µM (inactive) and the GI50 (MDA-N) was > 100 µM (inactive).
With `Cc1ccc(-n2c(=O)c3nn4c(=O)n(-c5ccc(C)cc5)c(=O)c4nn3c2=O)cc1` the GI50 (MOLT-4) was > 100 µM (inactive), the GI50 (HCT-116) was > 100 µM (inactive) and the GI50 (MDA-MB-435) was > 100 µM (inactive). For the same molecule, the GI50 (NCI-H522) was > 100 µM (inactive), the GI50 (SF-268) was > 100 µM (inactive) and the GI50 (PC-3) was > 100 µM (inactive). For the same molecule, the GI50 (UO-31) was > 100 µM (inactive), the GI50 (SK-MEL-5) was > 100 µM (inactive) and the GI50 (HOP-92) was 45.6 µM (inactive). The GI50 (SW-620) was > 100 µM (inactive), the GI50 (A549) was > 100 µM (inactive) and the GI50 (ACHN) was > 100 µM (inactive). For the same molecule, the GI50 (SF-539) was > 100 µM (inactive), the GI50 (SN12C) was > 100 µM (inactive) and the GI50 (UACC-62) was > 100 µM (inactive). For the same molecule, the GI50 (SK-OV-3) was > 100 µM (inactive), the GI50 (HCC 2998) was > 100 µM (inactive) and the GI50 (EKVX) was > 100 µM (inactive). The GI50 (OVCAR-8) was > 100 µM (inactive), the GI50 (IGROV-1) was > 100 µM (inactive) and the GI50 (HL-60) was > 100 µM (inactive). The GI50 (786-0) was > 100 µM (inactive), the GI50 (NCI-H226) was > 100 µM (inactive) and the GI50 (MCF7) was > 100 µM (inactive). The GI50 (SF-295) was > 100 µM (inactive), the GI50 (SNB-19) was > 100 µM (inactive) and the GI50 (OVCAR-3) was > 100 µM (inactive). The GI50 (BT-549) was > 100 µM (inactive), the GI50 (DU-145) was > 100 µM (inactive) and the GI50 (NCI-H23) was > 100 µM (inactive). The GI50 (CCRF-CEM) was > 100 µM (inactive), the GI50 (OVCAR-4) was > 100 µM (inactive) and the GI50 (OVCAR-5) was > 100 µM (inactive). The GI50 (HCT-15) was over 100 µM, the GI50 (Hs-578T) was > 100 µM (inactive) and the GI50 (M14) was > 100 µM (inactive). The GI50 (NCI/ADR-RES) was > 100 µM (inactive), the GI50 (COLO 205) was > 100 µM (inactive) and the GI50 (U-251) was > 100 µM (inactive). For the same molecule, the GI50 (K562) was > 100 µM (inactive), the GI50 (TK-10) was > 100 µM (inactive) and the GI50 (Malme-3M) was > 100 µM (inactive). The GI50 (LOX IMVI) was > 100 µM (inactive), the GI50 (RXF 393) was > 100 µM (inactive) and the GI50 (T47D) was > 100 µM (inactive). The GI50 (NCI-H460) was > 100 µM (inactive), the GI50 (SNB-75) was 58.3 µM (inactive) and the GI50 (SR) was > 100 µM (inactive). The GI50 (SK-MEL-28) was > 100 µM (inactive), the GI50 (SK-MEL-2) was > 100 µM (inactive) and the GI50 (HT-29) was > 100 µM (inactive). For the same molecule, the GI50 (UACC-257) was > 100 µM (inactive), the GI50 (KM12) was > 100 µM (inactive) and the GI50 (RPMI-8226) was > 100 µM (inactive). The GI50 (CAKI-1) was > 100 µM (inactive), the GI50 (HOP-62) was > 100 µM (inactive) and the GI50 (MDA-N) was > 100 µM (inactive).

Source: ChEMBL document CHEMBL1201862, “PubChem BioAssay data set” (2004)
